Results reported in publication PMC5209312, “Glycin-rich antimicrobial peptide YD1 from B. amyloliquefaciens, induced morphological alteration in and showed affinity for plasmid DNA of E. coli” (AMB Express, 2017).
Where two headings read alike, the source gives them in different places. Ends that are not written are not given here.

Legend:
MRSA B15 = type: cell-based, methicillin-resistant Staphylococcus aureus; settings: method of Wiegand et al. 2008
Procedure: (§1) The minimal inhibitory concentration (MIC) was determined according to the method described by Weigand et al. ([2008]).

[1] = system: Alcaligenes faecalis ATCC 1004; type: cell-based
Procedure: as §1

[2] = system: Pseudomonas aeruginosa KCTC 1637; type: cell-based
Procedure: as §1

VRSA = type: cell-based
Procedure: as §1

[3] = system: Salmonella Typhimurium KCTC 1925; type: cell-based
Procedure: as §1

[4] = system: Enterococcus faecalis ATCC 29212; type: cell-based
Procedure: as §1

[5] = system: Micrococcus luteus ATCC 9341; type: cell-based
Procedure: as §1

[6] = system: Mycobacterium smegmatis ATCC 9341; type: cell-based
Procedure: as §1

[7] = system: Escherichia coli KCTC 1923; type: cell-based
Procedure: as §1

[8] = system: Bacillus subtilis ATCC 6633; type: cell-based
Procedure: as §1

VRE 2 = type: cell-based, vancomycin-resistant enterococci
Procedure: as §1

VRE 5 = type: cell-based, vancomycin-resistant enterococci
Procedure: as §1

[9] = system: Staphylococcus aureus KCTC 1928; test: MIC determination; type: cell-based; settings: method of Wiegand et al. 2008
Procedure: as §1

E. coli spheroplasts = type: cell-based, Escherichia coli; settings: 2 h, 40 µg/mL
Procedure: Spheroplasts are gram-negative bacteria in which nearly all of the outer membrane (OM) has been removed. Lysozyme destroys the peptide bonds in peptidoglycan and weakens the cell wall. E. coli was grown in 10 mL of MHB, incubated overnight at 37 °C on a shaker at 180 rpm. Each culture (100 µL) was used to inoculate 20 mL of fresh media and incubated at 37 °C for 2 h at 180 rpm. Spheroplasts were prepared as described by Kikuchi et al. ([2015]).
Re-suspended spheroplasts and whole cells suspension were adjusted to OD 570 nm of 0.2 and 100 µL of each was added to a clear, flat-bottomed microtiter plate in duplicate wells. Ten microliters of YD1 in 10 mM Tris–HCl buffer (pH 7) was added to test wells for both preparations (spheroplasts and whole cells) at the indicated different final concentrations. To the control, 10 µL of 10 mM Tris–HCl buffer (pH 7) was added in lieu of YD1. The percentage of intact spheroplasts or whole cells was calculated as: =Sample OD at time X/Sample OD at time0×100
Decrease in the OD of the suspension after addition of a membrane-active agent indicates lysis of spheroplasts.

[10] = system: Mycobacterium smegmatis ATCC 9341; type: cell-based; remark: listed apart in the source
Procedure: A filter paper disc (8 mm, Toyo Roshi Kaisha, Japan) saturated with antimicrobial sample (40 µL) was placed on the surface of petri dish (87 mm × 15 mm) containing Mueller Hinton Agar (MHA). The plate was incubated at 37 °C, and a clear zone of inhibition surrounding the paper disc was measured in millimeter (mm). […] The titer of the antimicrobial substance solution, in AU/mL, was calculated as (1000/d) D, where D was the dilution factor, and d was the dose, the amount of antimicrobial substance solution added to each spot. AU and the zone of inhibition were measured against Mycobacterium smegmatis ATCC 9341 while optimizing CBSYD1 media.

[11] = system: Escherichia coli KCTC1923 (E. coli), methicillin-resistant Staphylococcus aureus B15 (MRSA), and vancomycin-resistant enterococci (VRE); type: cell-based
Procedure: as §1

[12] = Procedure: (§2) The thermal stability of YD1 samples was determined by exposure to 20, 40, 60, 80 and 100 °C for 30 min and to 121 °C/105 kPa for 15 min before analyzing the residual activity. Similarly, pH stability was determined over a range of pH 2–10 using 1 M NaOH or HCl. The effect of protease enzyme on YD1 stability was determined at two different enzyme concentrations (1 and 2 mg/mL).
protease enzymes = settings: enzymes at 1 and 2 mg/mL
Procedure: as §2

For Bacitracin [reference compound], which MIC (MRSA B15) is on record?
Its MIC is 64 µg/mL.

What about the MIC ([1]; Alcaligenes faecalis ATCC 1004, method of Wiegand et al. 2008) of the same substance?
Its MIC is over 128 µg/mL.

What about the MIC ([2]; Pseudomonas aeruginosa KCTC 1637, method of Wiegand et al. 2008) of the same substance?
The MIC was over 128 µg/mL.

And the MIC (VRSA; VRSA, method of Wiegand et al. 2008)?
Its MIC is over 128 µg/mL.

What about the MIC ([3]; Salmonella Typhimurium KCTC 1925, method of Wiegand et al. 2008) of the same substance?
Its MIC is 64 µg/mL.

And the MIC ([4]; Enterococcus faecalis ATCC 29212, method of Wiegand et al. 2008)?
Its MIC is 2 µg/mL.

And the MIC ([5]; Micrococcus luteus ATCC 9341, method of Wiegand et al. 2008)?
The MIC was 64 µg/mL.

What about the MIC ([6]; Mycobacterium smegmatis ATCC 9341, method of Wiegand et al. 2008) of the same substance?
Its MIC is over 128 µg/mL.

And the MIC ([7]; Escherichia coli KCTC 1923, method of Wiegand et al. 2008)?
Its MIC is over 128 µg/mL.

And the MIC ([8]; Bacillus subtilis ATCC 6633, method of Wiegand et al. 2008)?
The MIC was 64 µg/mL.

What about the MIC (VRE 2; VRE 2, method of Wiegand et al. 2008) of the same substance?
The MIC was 32 µg/mL.

And the MIC (VRE 5; VRE 5, method of Wiegand et al. 2008)?
The MIC was 64 µg/mL.

And the MIC [9]?
The MIC was over 128 µg/mL.

Which intact surviving spheroplasts (E. coli spheroplasts) does the source give for “APKGVQGPNG [YD1, Ala-Pro-Lys-Gly-Val-Gln-Gly-Pro-Asn-Gly]” here?
The intact surviving spheroplasts was over 88%.

What about the “clear zone of inhibition” value [10] of the same substance?
Its value is “up to 16 mm”.

And the MIC ([1]; ATCC 1004)?
The MIC was over 128 µg/mL.

And the MIC ([2]; KCTC 1637)?
The MIC was 16 µg/mL.

And the MIC (VRSA)?
The MIC was over 128 µg/mL.

And the MIC ([3]; KCTC 1925)?
The MIC was 32 µg/mL.

What about the “MIC (range over E. coli KCTC1923, MRSA B15 and VRE)” value [11] of the same substance?
Its value is 8 to 64 µg/mL.

And the MIC ([4]; ATCC 29212)?
Its MIC is 64 µg/mL.

And the MIC ([5]; ATCC 9341)?
Its MIC is 64 µg/mL.

What about the MIC ([6]; ATCC 9341) of the same substance?
Its MIC is 8 µg/mL.

And the MIC ([7]; KCTC 1923)?
The MIC was 8 µg/mL.

What about the MIC ([8]; ATCC 6633) of the same substance?
Its MIC is 64 µg/mL.

What about the “thermal stability (activity)” value ([12]; at or above 100 °C (100 °C 30 min; 121 °C/105 kPa 15 min)) of the same substance?
The value was “decreased sharply”.

What about the “pH stability (residual activity)” value ([12]; pH 4–9, tested pH 2–10 with 1 M NaOH or HCl) of the same substance?
Its value is “completely stable”.

And the “thermal stability (residual activity)” value ([12]; up to 80 °C, 30 min exposure)?
Its value is “completely stable”.

What about the “effect of protease enzymes on antimicrobial activity” value (protease enzymes) of the same substance?
Its value is “failed to alter”.

What about the MIC (VRE 2) of the same substance?
Its MIC is 64 µg/mL.

And the MIC (VRE 5)?
The MIC was 64 µg/mL.
